In patent publication US20100035934A1, “PYRIDINYL-PYRAZOLE DERIVATIVES AND THEIR USE AS POTASSIUM CHANNEL MODULATORS” (NeuroSearch A/S, priority 2007, published 2010):

Molecular target: T1, hSK3 channels (Homo sapiens, UniProt Q9UGI6)
T1 construct: expressed in transfected cells; host or cells: HEK293
Assay: Whole-cell patch-clamp recording of ionic current through SK channels (subtype 3) in HEK293 cells expressing hSK3
Type: cell-based
Conditions: baseline current at -75 mV, free Ca2+ 0.3-0.4 μM, room temperature
Method: The ionic current through small-conductance Ca^2+-activated K^+ channels (SK channels, subtype 3) is recorded using the whole-cell configuration of the patch-clamp technique.
HEK293 tissue culture cells expressing hSK3 channels were grown in DMEM (Dulbecco's Modified Eagle Medium) supplemented with 10% FCS (foetal calf serum) at 37° C. in 5% CO2. At 60-80% confluency, cells were harvested by trypsin treatment and seeded on cover slips.
Experiments are carried out on one of several patch-clamp set-ups. Cells plated on coverslips are placed in a 15 μl perfusion chamber (flowrate ˜1 ml/min) mounted on an IMT-2 microscope. The microscopes are placed on vibration-free tables in grounded Faraday cages. All experiments are performed at room temperature (20-22° C.). EPC-9 patch-clamp amplifiers (HEKA-electronics, Lambrect, Germany) are connected to Macintosh computers via ITC16 interfaces. Data are stored directly on the hard-disk and analysed by IGOR software (Wavemetrics, Lake Oswega, Oreg., USA).
The whole-cell configuration of the patch-clamp technique is applied. In short: The tip of a borosilicate pipette (resistance 2-4 MΩ) is gently placed on the cell membrane using remote control systems. Light suction results in the formation of a giga seal (pipette resistance increases to more than […]) and the cell membrane underneath the pipette is then ruptured by more powerful suction. Cell capacitance is electronically compensated and the resistance between the pipette and the cell interior (the series resistance, Rs) is measured and compensated for. Usually the cell capacitance ranges from 5 to 20 pF (depending on cell size) and the series resistance is in the range 3 to 6 MΩ. Rs—as well as capacitance compensation are updated during the experiments (before each stimulus). All experiments with drifting Rs-values are discharged. Leak-subtractions are not performed.
The extracellular (bath) solution contains (in mM): 154 mM KCl, 0.1 CaCl2, 3 MgCl2, 10 HEPES (pH=7.4 with HCl). The test compound was dissolved 1000 times in DMSO from a concentrated stock solution and then diluted in the extracellular solution.
The intracellular (pipette) solution contained: 154 mM KCl, 10 mM HEPES, 10 mM EGTA. Concentrations of CaCl2 and MgCl2 needed to obtain the desired free concentrations of Ca^2+ (0.3-0.4 μM, Mg^2+ always 1 mM) were calculated by EqCal software (Cambridge, UK) and added.
After establishment of the whole-cell configuration, voltage-ramps (normally −80 to +80 mV) are applied to the cell every 5 seconds from a holding potential of 0 mV. […] Active compounds are quantified by calculating the change in baseline current at −75 mV. […]

Row | The SC100 (Stimulating Concentration required for increasing the baseline current by 100%) [µM] | SMILES
1 | 0.1 | CNc1cc(-n2nc(C)cc2C)nc(Nc2ccc(Cl)cc2)c1N [Compound D1, 3-Amino-2-(4-chlorophenylamino)-6-(3,5-dimethylpyrazol-1-yl)-4-methylamino-pyridine]
2 | 0.4 | Cc1cc(C)n(-c2cccc(Nc3ccc(F)c(F)c3)n2)n1 [Compound C4, (3,4-Difluoro-phenyl)-[6-(3,5-dimethyl-pyrazol-1-yl)-pyridin-2-yl]-amine]
3 | 0.03 | Cc1cc(C)n(-c2cccc(Nc3ccc(Cl)cc3)n2)n1 [Compound A1, (4-Chloro-phenyl)-[6-(3,5-dimethyl-pyrazol-1-yl)-pyridin-2-yl]-amine]
4 | 0.3 | Clc1ccc(Nc2cccc(-n3cccn3)n2)c(Cl)c1 [Compound A8, (2,4-Dichloro-phenyl)-(6-pyrazol-1-yl-pyridin-2-yl)-amine]
